23 molecules from patent US20100016366A1, “Novel Compounds Active as Muscarinic Receptor Antagonists” (priority 2008, published 2010) can be followed below.

pKi: −log10 of the molar value.

T1 sequence (P20309 whole entry): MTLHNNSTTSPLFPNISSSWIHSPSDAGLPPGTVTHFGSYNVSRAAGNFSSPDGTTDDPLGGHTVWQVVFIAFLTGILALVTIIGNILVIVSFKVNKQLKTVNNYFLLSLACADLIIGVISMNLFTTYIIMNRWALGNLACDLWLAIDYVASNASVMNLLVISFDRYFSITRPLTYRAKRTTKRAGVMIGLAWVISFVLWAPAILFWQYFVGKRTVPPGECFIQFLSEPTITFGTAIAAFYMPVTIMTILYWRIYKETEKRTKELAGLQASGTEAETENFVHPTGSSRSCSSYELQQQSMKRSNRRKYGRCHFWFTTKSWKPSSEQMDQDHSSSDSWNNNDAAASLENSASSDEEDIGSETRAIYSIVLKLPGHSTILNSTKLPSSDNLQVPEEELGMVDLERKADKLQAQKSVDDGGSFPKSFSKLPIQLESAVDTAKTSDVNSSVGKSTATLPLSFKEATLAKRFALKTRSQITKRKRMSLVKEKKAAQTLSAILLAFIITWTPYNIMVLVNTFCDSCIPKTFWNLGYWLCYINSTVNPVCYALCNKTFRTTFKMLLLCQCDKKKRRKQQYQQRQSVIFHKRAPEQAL

This test has as its target T1, human muscarinic M3 receptor (Homo sapiens, UniProt P20309).
T1 construct: expressed in transfected cells; host or cells: CHO (CHO-K1) cells
Briefly: hM3 competition binding assay (3H-NMS, CHO cell membranes). The following applies: CHO cell membranes expressing human M3; 3H-NMS at 5×KD, 24 hr at RT; IC50 corrected by Cheng-Prussoff. The protocol:
Binding Affinity Assessment at the Human Recombinant M3 Muscarinic Receptor
Cell Pellets from CHO (Chinese Hamster Ovary) cells recombinantly expressing the human muscarinic M3 receptor were homogenised in 20 mM HEPES (pH7.4) and centrifuged at 48000×g for 20 min at 4° C. The pellet was re-suspended in buffer and the homogenisation and centrifugation steps repeated. The resulting pellet was re-suspended in 1 ml buffer per 1 ml original packed cell volume and the homogenisation step repeated. Protein estimation was carried out on the suspension and 1 ml aliquots of ˜1 mg/ml frozen at −80° C.
hM3 Competition Binding Assay Protocol
Membranes (5 µg/well) were incubated with ^3H-NMS (at a concentration 5×KD) plus/minus test compound for 24 hr at RT (room temperature) in a 1 ml polystyrene 96-well deep well block. The final assay volume was 200 µl, comprising of: 20 µl plus/minus test compound; 20 µl ^3H-NMS (Perkin Elmer NEN 636) and 160 µl membrane solution. Total Binding was defined with 0.1% DMSO; Non-Specific Binding was defined with 1 µM Atropine. Assay buffer was 20 mM Hepes (pH 7.4).
Once all assay components were added, plates were covered and incubated at room temperature for 24 hrs with shaking. The assay was terminated by rapidly filtering through GF/B Unifilter plates pre-soaked with 0.5% polyethylenimine, using a Packard filtermate harvester, the filter plate was then washed with 3×1 ml 4° C. assay buffer. The filter plates were dried at 45° C. for 1 hour. The bottoms of the filter plates were sealed and 50 µl/well of Microscint ‘0’ added, the top of the plates were sealed with a Topseal. Following 90 mins, the plates were read on an NXT Topcount (1 minute read time per well).
The resulting data was expressed as a percentage of the specific binding (Specific binding=Total binding−Non-Specific Binding). % specific binding versus test compound concentration was plotted to determine an IC50 from a sigmoid curve using an in-house data analysis programme. IC50 values corrected to Ki values by applying the Cheng-Prussoff equation: […]
where IC50 is the concentration of unlabelled drug which inhibits by 50% the specific radioligand binding. [L] is the free radioligand concentrations and KD and Ki are the equilibrium dissociation constants of the radioligand and unlabelled drug respectively.
`CN(CCCCCCCCCN1CCC(OC(=O)Nc2ccccc2-c2ccccc2)CC1)C(=O)c1cccc(F)c1O` [Example 59, Biphenyl-2-yl-carbamic acid 1-{9-[(3-fluoro-2-hydroxy-benzoyl)-methyl-amino]-nonyl}-piperidin-4-yl ester]: the pKi was 8.90.
Molecule `CN(CCCCCCCCCN1CCC(OC(=O)Nc2ccccc2-c2ccccc2)CC1)C(=O)c1ccc(O)cc1F` [Example 63, Biphenyl-2-yl-carbamic acid 1-{9-[(2-fluoro-4-hydroxy-benzoyl)-methyl-amino]-nonyl}-piperidin-4-yl ester] gave a pKi of 8.95.
In turn, `CN(CCCCCCCCCN1CCC(OC(=O)Nc2ccccc2-c2ccccc2)CC1)C(=O)c1ccc(F)c(F)c1O` [Example 58, Biphenyl-2-yl-carbamic acid 1-{9-[(3,4-difluoro-2-hydroxy-benzoyl)-methyl-amino]-nonyl}-piperidin-4-yl ester] had a pKi of 8.74.
`O=C(Nc1ccccc1-c1ccccc1)OC1CCN(CCCCCCCCCN(Cc2cccc(O)c2Cl)Cc2cccc(O)c2Cl)CC1` [Example 39, Biphenyl-2-yl-carbamic acid 1-{9-[bis-(2-chloro-3-hydroxy-benzyl)-amino]-nonyl}-piperidin-4-yl ester] gave a pKi of 8.95.
Turning to `CN(CCCCCCCCCN1CCC(OC(=O)Nc2ccccc2-c2ccccc2)CC1)Cc1cc(Cl)ccc1O` [Example 46, Biphenyl-2-yl-carbamic acid 1-{9-[(5-chloro-2-hydroxy-benzyl)-methyl-amino]-nonyl}-piperidin-4-yl ester], the pKi is 9.12.
`CN(CCCCCCCCCN1CCC(OC(=O)Nc2ccccc2-c2ccccc2)CC1)C(=O)c1cccc(Cl)c1O` [Example 57, Biphenyl-2-yl-carbamic acid 1-{9-[(3-chloro-2-hydroxy-benzoyl)-methyl-amino]-nonyl}-piperidin-4-yl ester] gave a pKi of 9.06.
`CN(CCCCCCCCCN1CCC(OC(=O)Nc2ccccc2-c2ccccc2)CC1)C(=O)c1ccc(O)c(F)c1` [Example 69, Biphenyl-2-yl-carbamic acid 1-{9-[(3-fluoro-4-hydroxy-benzoyl)-methyl-amino]-nonyl}-piperidin-4-yl ester] gave a pKi of 9.21.
`CN(CCCCCCCCCN1CCC(OC(=O)Nc2ccccc2-c2ccccc2)CC1)C(=O)c1ccc(Cl)cc1O` [Example 60, Biphenyl-2-yl-carbamic acid 1-{9-[(4-chloro-2-hydroxy-benzoyl)-methyl-amino]-nonyl}-piperidin-4-yl ester]: the pKi was 8.44.
The molecule `CN(CCCCCCCCCN1CCC(OC(=O)Nc2ccccc2-c2ccccc2)CC1)Cc1cc(Cl)cc(Cl)c1O` [Example 52, Biphenyl-2-yl-carbamic acid 1-{9-[(3,5-dichloro-2-hydroxy-benzyl)-methyl-amino]-nonyl}-piperidin-4-yl ester] gave a negative logarithm of the Ki (pKi) of 9.20. Against the preceding molecule, the pKi is 0.76 log units higher.
Then `CN(CCCCCCCCCN1CCC(OC(=O)Nc2ccccc2-c2ccccc2)CC1)Cc1ccc(F)c(O)c1` [Example 42, Biphenyl-2-yl-carbamic acid 1-{9-[(4-fluoro-3-hydroxy-benzyl)-methyl-amino]-nonyl}-piperidin-4-yl ester], with 9.63.
Regarding `CN(CCCCCCCCCN1CCC(OC(=O)Nc2ccccc2-c2ccccc2)CC1)Cc1cc(F)cc(F)c1O` [Example 55, Biphenyl-2-yl-carbamic acid 1-{9-[(3,5-difluoro-2-hydroxy-benzyl)-methyl-amino]-nonyl}-piperidin-4-yl ester], the pKi was 9.38.
Then `CN(CCCCCCCCCN1CCC(OC(=O)Nc2ccccc2-c2ccccc2)CC1)C(=O)c1ccc(O)c(F)c1F` [Example 64, Biphenyl-2-yl-carbamic acid 1-{9-[(2,3-difluoro-4-hydroxy-benzoyl)-methyl-amino]-nonyl}-piperidin-4-yl ester], with 8.70; and `CN(CCCCCCCCCN1CCC(OC(=O)Nc2ccccc2-c2ccccc2)CC1)Cc1cc(Cl)c(O)c(Cl)c1` [Example 50, Biphenyl-2-yl-carbamic acid 1-{9-[(3,5-dichloro-4-hydroxy-benzyl)-methyl-amino]-nonyl}-piperidin-4-yl ester], with 9.66; and `CN(CCCCCCCCCN1CCC(OC(=O)Nc2ccccc2-c2ccccc2)CC1)Cc1cc(F)ccc1O` [Example 47, Biphenyl-2-yl-carbamic acid 1-{9-[(5-fluoro-2-hydroxy-benzyl)-methyl-amino]-nonyl}-piperidin-4-yl ester], with 9.28.
For the molecule `CN(CCCCCCCCCN1CCC(OC(=O)Nc2ccccc2-c2ccccc2)CC1)Cc1cc(Cl)c(Cl)cc1O` [Example 41, Biphenyl-2-yl-carbamic acid 1-{9-[(4,5-dichloro-2-hydroxy-benzyl)-methyl-amino]-nonyl}-piperidin-4-yl ester], the pKi was 8.89.
Molecule `CN(CCCCCCCCCN1CCC(OC(=O)Nc2ccccc2-c2ccccc2)CC1)C(=O)Cc1cccc(O)c1` [Example 66, Biphenyl-2-yl-carbamic acid 1-(9-{[2-(3-hydroxy-phenyl)-acetyl]-methyl-amino}-nonyl)-piperidin-4-yl ester] showed a pKi of 9.53.
Then `CN(CCCCCCCCCN1CCC(OC(=O)Nc2ccccc2-c2ccccc2)CC1)C(=O)c1cc(Cl)ccc1O` [Example 68, Biphenyl-2-yl-carbamic acid 1-{9-[(5-chloro-2-hydroxy-benzoyl)-methyl-amino]-nonyl}-piperidin-4-yl ester], with 8.64; and `CN(CCCCCCCCCN1CCC(OC(=O)Nc2ccccc2-c2ccccc2)CC1)Cc1ccc(O)c(F)c1` [Example 45, Biphenyl-2-yl-carbamic acid 1-{9-[(3-fluoro-4-hydroxy-benzyl)-methyl-amino]-nonyl}-piperidin-4-yl ester], with 9.67.
`CN(CCCCCCCCCN1CCC(OC(=O)Nc2ccccc2-c2ccccc2)CC1)Cc1ccc(O)c(Cl)c1` [Example 44, Biphenyl-2-yl-carbamic acid 1-{9-[(3-chloro-4-hydroxy-benzyl)-methyl-amino]-nonyl}-piperidin-4-yl ester] had a pKi of 9.67.
`CN(CCCCCCCCCN1CCC(OC(=O)Nc2ccccc2-c2ccccc2)CC1)C(=O)c1cc(Cl)cc(Cl)c1O` [Example 56, Biphenyl-2-yl-carbamic acid 1-{9-[(3,5-dichloro-2-hydroxy-benzoyl)-methyl-amino]-nonyl}-piperidin-4-yl ester] showed a pKi of 7.95.
Consider `CN(CCCCCCCCCN1CCC(OC(=O)Nc2ccccc2-c2ccccc2)CC1)Cc1ccc(Cl)c(O)c1Cl` [Example 54, Biphenyl-2-yl-carbamic acid 1-{9-[(2,4-dichloro-3-hydroxy-benzyl)-methyl-amino]-nonyl}-piperidin-4-yl ester], for which the negative-log Ki (pKi) was 9.63.
In turn, `CN(CCCCCCCCCN1CCC(OC(=O)Nc2ccccc2-c2ccccc2)CC1)Cc1cccc(O)c1F` [Example 51, Biphenyl-2-yl-carbamic acid 1-{9-[(2-fluoro-3-hydroxy-benzyl)-methyl-amino]-nonyl}-piperidin-4-yl ester] showed a pKi of 9.64.
Regarding `CN(CCCCCCCCCN1CCC(OC(=O)Nc2ccccc2-c2ccccc2)CC1)Cc1cc(F)c(Cl)cc1O` [Example 43, Biphenyl-2-yl-carbamic acid 1-{9-[(4-chloro-5-fluoro-2-hydroxy-benzyl)-methyl-amino]-nonyl}-piperidin-4-yl ester], the negative-log Ki (pKi) was 9.53.
